Legend:
Assay type in all cases: in vivo
[1] = test system: cabbage looper (Trichoplusia ni); assay: Insecticidal test for cabbage looper (leaf-dip, cabbage leaf discs); details: Trichoplusia ni, foliar, 120 h, dipped cabbage leaf discs, 2nd instar larvae, 5 days, rating of % Control, read-out: CL, activity at 400 ppm against cabbage looper
Procedure: (§1) Insecticidal test for tobacco budworm (Heliothis virescens), beet armyworm (Spodoptera exigua), and cabbage looper (Trichoplusia ni).
(§2) To prepare test solution, the test compound was formulated at 400 ppm in 7.5 mL of 2 acetone: 1 tap water. 250 µL of the test solution was pipetted upon the surface of 8 mL of lepidopteran diet (modified Shorey) contained in each of five one-ounce plastic cups (one cup = 1 replication). […] After airdrying, the treated leaf discs were placed individually into one-ounce plastic cups. Each dried, treated cotton cotyledon disc was infested with a 2nd instar tobacco budworm larva, and each cabbage leaf disc was infested with a 2nd instar cabbage looper larva. Cups containing the treated substrates and larvae were capped and then held in a growth chamber at 25 °C, 50-55% RH, and 14 hr light: 10 hr dark for 5 days.

[2] = test system: cotton aphid (Aphis gossypii); assay: Insecticidal test for cotton aphid (spray on infested squash cotyledons); details: 50 ppm spray, all life stages, 3 days, rating of % Control
Procedure: Insecticidal test for cotton aphid (Aphis gossypii)
To prepare spray solutions, 1 mg of each test compound was dissolved into 1 mL of a 90:10 acetone:ethanol solvent. This 1 mL of chemical solution was added to 19 mL of water containing 0.05% Tween 20 surfactant to produce a 50 ppm spray solution.
Squash cotyledons were infested with cotton aphid (all life stages)16-20 hours prior to application of spray solution. The solution was sprayed on both sides of each infested squash cotyledon (0.5 mL x 2 each side) with a sweeping action until runoff. The plants were allowed to air dry and held for 3 days in a controlled room at 26 °C and 40% RH after which time the test was graded. Grading was by actual count using a dissecting microscope and comparison of test counts to the untreated check.

[3] = test system: two-spotted spider mite (Tetranychus urticae); assay: Insecticidal test for two-spotted spider mite, ovicide method; details: Tetranychus urticae, foliar, 144 h; ovicide method, cotton leaf discs, 6 days; rating of % Control; read-out: SM, activity against two-spotted spider mite
Procedure: Insecticidal test for two-spotted spider mite (Tetranychus urticae)
Ten adult female two-spotted spider mites were placed on eight 2.2 cm leaf discs of cotton leaf, allowed to oviposit over 24 hours, and thereafter removed. […] Discs were placed on an agar substrate and held at 24 °C and 90% RH for 6 days.

[4] = test system: Sweetpotato Whitefly (Bemisia tabacia); assay: Insecticidal test for sweetpotato whitefly (spray on cotton plants); details: Bemisia, 312 h, 200 ppm spray, large nymphs counted after 13 days, rating of % Control, read-out: WF, activity at 200 ppm against whitefly
Procedure: Insecticidal test for Sweetpotato Whitefly (Bemisia tabacia)
Four mg of each test compound were dissolved by adding 4 mL of a 90:10 acetone:ethanol solvent mixture to the vial containing the sample compound. This solution was added to 16 mL of water containing 0.05% Tween 20 surfactant to produce 20 mL of a 200 ppm spray solution.
Five-week-old cotton plants reared in a greenhouse were stripped of all foliage except for the two uppermost true leaves that were greater than 5 cm in diameter. These plants were then placed into a laboratory colony of whiteflies for two days for oviposition by the colony females. All whiteflies were then removed from the test plants with pressurized air. The spray solution was then applied to the test plants with a hand-held syringe fitted with hollow cone nozzle. One mL spray solution was applied to each leaf top and bottom for a total of 4 mL per plant. Four replications of each test compound utilized a total of 16 mL spray solution. Plants were air dried and then placed in a holding chamber (28 °C and 60% RH) for 13 days. Compound efficacy was evaluated by counting, under an illuminated magnifying glass, the number of large nymphs (3rd-4th instar) per leaf
Percent control based on reduction of large nymphs of a test compound compared to solution-only (no test compound) sprayed plants is reported in Table 1-8.

[5] = test system: tobacco budworm (Heliothis virescens); assay: Insecticidal test for tobacco budworm (leaf-dip, cotton cotyledon discs); details: Heliothis virescens, 120 h, dipped cotton cotyledon discs, 2nd instar larvae, 5 days, rating of % Control, read-out: TBW, activity at 400 ppm against tobacco budworm
Procedure: as §1, §2

[6] = test system: beet armyworm (Spodoptera exigua); assay: Insecticidal test for beet armyworm (treated lepidopteran diet); details: Spodoptera exigua, 120 h, 2nd instar larvae, 5 days, rating of % Control, read-out: BAW, activity at 400 ppm against beet armyworm
Procedure: as §1, §2

SMILES | pest or weed control at 400 ppm [1] | CA, activity at 50 ppm against cotton aphid [2] | pest or weed control [3] | pest or weed control at 200 ppm [4] | pest or weed control at 400 ppm [5] | pest or weed control at 400 ppm [6]
C[C@@H]1OC(c2c(F)cccc2Cl)=N[C@@H]1c1ccc(Br)cc1 (mixture of isomers) [Compound 3, (4R,5S)- and (4S,5R)-4-(4-bromophenyl)-2-(2-chloro-6-fluorophenyl)-5-methyl-4,5-dihydro-1,3-oxazole] | 90 to 100% | B (80-89) | 90 to 100% | 90 to 100% |  | 
C[C@H]1OC(c2c(F)cccc2F)=N[C@H]1c1ccc(-c2ccc(OC(F)(F)F)cc2)cc1 (mixture of isomers) [Compound 6, (4S,5R)- and (4R,5S)-2-(2,6-difluorophenyl)-4-(4'-trifluoromethoxy-1,1'-biphenyl-4-yl)-5-methyl-4,5-dihydro-1,3-oxazole] | 90 to 100% | A (90-100) | 90 to 100% | 80 to 89% | 90 to 100% | 90 to 100%
C[C@@H]1OC(c2c(F)cccc2F)=N[C@H]1c1ccc(-c2ccc(C(F)(F)F)cc2F)cc1 (mixture of isomers) [Compound 32, (4S,5S)- and (4R,5R)-2-(2,6-difluorophenyl)-4-[2'-fluoro-4'-(trifluoromethyl)-1,1'-biphenyl-4-yl]-5-methyl-4,5-dihydro-1,3-oxazole] | 90 to 100% |  | 70 to 79% | < 50% | 90 to 100% | 90 to 100%
C[C@@H]1OC(c2c(F)cccc2F)=N[C@@H]1c1ccc(Br)cc1 (mixture of isomers) [Compound 2, (4R,5S)- and (4S,5R)-4-(4-bromophenyl)-2-(2,6-difluorophenyl)-5-methyl-4,5-dihydro-1,3-oxazole] | < 50% | A (90-100) | 90 to 100% | 90 to 100% |  | < 50%
CC(C)c1ccc(-c2ccc([C@@H]3N=C(c4c(F)cccc4F)O[C@@H]3C)cc2)cc1 (mixture of isomers) [Compound 7, (4S,5R)- and (4R,5S)-2-(2,6-difluorophenyl)-4-(4'-isopropyl-1,1'-biphenyl-4-yl)-5-methyl-4,5-dihydro-1,3-oxazole] | 90 to 100% |  | 60 to 69% | 90 to 100% | 90 to 100% | 90 to 100%
